Test results taken from patent publication US20060094731A1, “New medicament” (priority 2003, published 2006).

What was measured:
[1] = tested on: patients with diabetic nephropathy; assay: Double-blind, randomised, placebo-controlled study of 24-hour proteinuria on top of high-dose ARB
Protocol: The study was double-blind, randomised, and placebo-controlled. […] Patients were included if at the end of the 4-week treatment period with high-dose ARBs, their 24-hour proteinuria was >300 mg/24 h. They were randomised into 3 groups: 20 mg of compound A, 50 mg of compound A, or placebo once daily, on top of the high dose ARB. Treatment duration was 4 weeks. The primary variable was 24-hour proteinuria.
Out of the 23 randomised patients, 7 received compound A 20 mg, 8 received compound A 50 mg and 8 received placebo. The mean age (±SD) was similar for all 3 groups. The HbA1c level at entry was also similar for all 3 groups.

[2] = tested on: patients with type 2 diabetes and nephropathy; details: literature studies (N Engl J Med 2001); correlating with reduction in onset of end-stage renal disease, no change in mortality rates; cited from earlier work

Row | SMILES | decrease in 24-hour proteinuria ([1]; compound A 50 mg once daily, 4 weeks, on top of high-dose ARB, mean ± SD, 8 patients) [g/24 h] | mean decrease in 24-hour proteinuria ([1]; the 2 groups treated with compound A (20 mg and 50 mg), summary statement, called clinically relevant) | effect on proteinuria [2]
1 | COc1ccccc1Oc1c(NS(=O)(=O)c2ccc(C)cn2)nc(-c2ccncc2)nc1OC [compound A] | −1.3±1.3 | around 1 g/24 h | 
2 | CCCCC1=NC2(CCCC2)C(=O)N1Cc1ccc(-c2ccccc2-c2nnn[nH]2)cc1 [irbesartan] |  |  | decrease in proteinuria
3 | CCCCc1nc(Cl)c(CO)n1Cc1ccc(-c2ccccc2-c2nn[nH]n2)cc1 [losartan] |  |  | decrease in proteinuria
